Measured values from US9527851B2, “Pyrrole six-membered heteroaryl ring derivative, preparation method thereof, and medicinal uses thereof” (Jiangsu Hengrui Medicine Co., Ltd., priority 2011, dated 2016).

Experiments:
T cells = assay: Proliferation inhibition assay on T cells (PBMC, anti-CD3, IL-2, ATPlite); format: cell-based; settings: Homo sapiens, T-cell; IL-2 10 ng/mL, 72 hours
Description: The following in vitro assay is to determine the activity of the compounds of the present invention for inhibiting the proliferation of T cells.
The activity is represented by the IC50 value.
The general procedures of the assay are given as follows: first, the PBMC cell line (purchased from Shanghai Blood Center) was centrifuged, the supernatant was removed, and the cells counted. […] Then, the cells were washed 3 times, resuspended, diluted to 2×10^6/mL, and then mixed with recombinant human IL-2 (purchased from Peprotech, Catalog Number: 200-02) to a concentration of 10 ng/mL, and cultured for another 3 days. The cells were washed again 3 times, and diluted to 5×10^5/mL. 80 μL of the cells were seeded in each well of a 96-well cell culture plate. […] To the control wells, 10 μL culture medium were added. The plate was placed in an incubator. After incubating for 1 hr, negative control wells were mixed with 10 μL of culture medium, and the rest of the wells were mixed with IL-2 to a concentration of 10 ng/mL, and incubated continuously for 72 hours. […] IC50 values were calculated from the data of inhibition rates at various concentrations of the test compounds.
(§1) The biological activity of the compounds of the present invention was tested by using the assay described above.

JAK1 kinase = JAK1 kinase (Homo sapiens (Human), UniProt P23458); assay: Assay for inhibiting JAK1 kinase (in vitro kinase assay, HRP anti-phosphotyrosine antibody/TMB absorbance); format: biochemical; settings: 20 μM ATP, 50 minutes at room temperature; read-out: IC50 (JAK1/Bio)
Chain of JAK1 kinase (P23458 whole entry): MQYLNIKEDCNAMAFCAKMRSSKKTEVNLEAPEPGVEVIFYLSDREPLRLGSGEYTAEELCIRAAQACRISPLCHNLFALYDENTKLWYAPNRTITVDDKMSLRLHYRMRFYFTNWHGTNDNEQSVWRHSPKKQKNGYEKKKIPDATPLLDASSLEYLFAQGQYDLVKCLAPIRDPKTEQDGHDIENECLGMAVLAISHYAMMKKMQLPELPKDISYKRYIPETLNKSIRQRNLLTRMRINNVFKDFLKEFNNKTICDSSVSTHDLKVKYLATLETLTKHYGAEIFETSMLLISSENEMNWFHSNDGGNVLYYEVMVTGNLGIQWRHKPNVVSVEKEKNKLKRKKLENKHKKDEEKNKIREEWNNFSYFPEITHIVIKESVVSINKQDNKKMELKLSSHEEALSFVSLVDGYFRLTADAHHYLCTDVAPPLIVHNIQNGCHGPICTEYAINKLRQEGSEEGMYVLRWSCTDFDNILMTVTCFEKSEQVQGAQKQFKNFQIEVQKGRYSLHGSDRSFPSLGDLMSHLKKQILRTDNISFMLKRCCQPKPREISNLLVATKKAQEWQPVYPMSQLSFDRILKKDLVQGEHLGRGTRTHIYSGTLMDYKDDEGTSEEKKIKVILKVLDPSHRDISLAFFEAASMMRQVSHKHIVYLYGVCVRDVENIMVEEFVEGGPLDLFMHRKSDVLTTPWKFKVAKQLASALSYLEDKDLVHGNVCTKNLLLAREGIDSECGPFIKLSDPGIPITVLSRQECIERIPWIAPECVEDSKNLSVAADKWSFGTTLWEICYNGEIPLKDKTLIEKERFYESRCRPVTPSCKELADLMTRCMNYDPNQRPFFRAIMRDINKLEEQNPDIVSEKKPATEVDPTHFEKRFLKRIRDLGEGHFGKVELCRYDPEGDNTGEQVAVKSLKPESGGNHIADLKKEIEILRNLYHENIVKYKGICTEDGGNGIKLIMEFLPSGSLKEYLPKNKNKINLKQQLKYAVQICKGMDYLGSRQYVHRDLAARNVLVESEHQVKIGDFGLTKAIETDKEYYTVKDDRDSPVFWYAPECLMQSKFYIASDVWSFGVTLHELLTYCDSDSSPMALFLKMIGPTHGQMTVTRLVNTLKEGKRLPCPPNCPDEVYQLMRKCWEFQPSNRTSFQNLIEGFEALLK
Method: In vitro activity of compounds of the present invention for inhibiting JAK1 kinase was determined by the following method.
IC50 values of test compounds was calculated from the data of the test compounds in inhibiting the activity of JAK1 kinase at different concentrations.

JAK2 kinase = JAK2 kinase (Homo sapiens (Human), UniProt O60674); assay: Assay for inhibiting JAK2 kinase (in vitro kinase assay, HRP anti-phosphotyrosine antibody/TMB absorbance); format: biochemical; settings: 20 μM ATP, 50 minutes at room temperature; read-out: IC50 (JAK2/Bio)
Chain of JAK2 kinase (O60674 whole entry): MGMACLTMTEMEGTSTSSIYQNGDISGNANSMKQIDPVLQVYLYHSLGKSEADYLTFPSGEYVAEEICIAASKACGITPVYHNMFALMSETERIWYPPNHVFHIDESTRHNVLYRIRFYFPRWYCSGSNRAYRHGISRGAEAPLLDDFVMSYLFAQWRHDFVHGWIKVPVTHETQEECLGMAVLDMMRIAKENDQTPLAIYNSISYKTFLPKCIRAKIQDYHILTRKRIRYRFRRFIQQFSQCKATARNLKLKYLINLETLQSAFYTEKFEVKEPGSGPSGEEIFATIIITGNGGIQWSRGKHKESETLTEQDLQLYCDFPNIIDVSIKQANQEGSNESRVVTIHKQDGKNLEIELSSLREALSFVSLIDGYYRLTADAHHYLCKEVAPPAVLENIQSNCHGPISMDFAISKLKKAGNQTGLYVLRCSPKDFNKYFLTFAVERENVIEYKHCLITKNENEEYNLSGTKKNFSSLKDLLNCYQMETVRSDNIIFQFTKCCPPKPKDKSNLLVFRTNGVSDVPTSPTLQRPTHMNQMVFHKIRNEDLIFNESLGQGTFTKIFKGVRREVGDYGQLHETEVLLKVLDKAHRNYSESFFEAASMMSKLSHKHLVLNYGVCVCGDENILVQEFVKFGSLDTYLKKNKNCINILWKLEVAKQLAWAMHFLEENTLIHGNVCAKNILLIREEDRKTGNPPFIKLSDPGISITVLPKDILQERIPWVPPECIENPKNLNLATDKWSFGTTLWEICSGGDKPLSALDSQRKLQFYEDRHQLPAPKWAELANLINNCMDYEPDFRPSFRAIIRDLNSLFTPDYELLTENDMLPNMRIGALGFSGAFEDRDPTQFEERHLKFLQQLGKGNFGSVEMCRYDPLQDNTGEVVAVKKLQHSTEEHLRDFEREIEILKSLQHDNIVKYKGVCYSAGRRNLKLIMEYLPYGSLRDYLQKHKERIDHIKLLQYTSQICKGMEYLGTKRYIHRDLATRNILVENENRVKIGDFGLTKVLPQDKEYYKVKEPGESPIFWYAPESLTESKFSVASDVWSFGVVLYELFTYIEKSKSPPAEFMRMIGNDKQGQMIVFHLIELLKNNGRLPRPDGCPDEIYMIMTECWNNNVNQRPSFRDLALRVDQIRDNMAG
Method: In vitro activity of compounds of the present invention for inhibiting JAK2 kinase was determined by the following method.

[1] = system: human erythroid leukemia cell line TF-1; assay: Proliferation inhibition assay on human erythroid leukemia cell line TF-1 mediated by IL-4 (Cell Counting Kit-8); format: cell-based; settings: TF-1 cells, 10 ng/mL IL-4, 72 hours
Description: The following in vitro assay is to determine the activity of the compounds of the present invention for inhibiting the proliferation of human erythroid leukemia cell line TF-1.
The activity is represented by the IC50 value, which can not only reflect the activity of a test compound for inhibiting JAK2 and JAK3 kinase, but can also reflect the selectivity of a test compound for JAK2 and JAK3 kinase.
The general procedures of the assay are given as follows: first, the TF-1 cells (purchased from ATCC, Catalog number: CRL 2003) were seeded in a 96-well cell culture plate at a suitable cell concentration (8000 cells/mL medium), and 10 ng/mL IL-4 (Invitrogen, Catalog Number: PHC0044) were added to each well. Then 10× serial concentration gradient of test compounds solutions (10000, 1000, 100, 10, 1 and 0.1 nM) were prepared, and then the 10× compound solutions prepared above were added to the 96-well cell culture plate containing IL-4. After the cell plates were cultured continuously for 72 hours, the activity of the test compounds for inhibiting the cell proliferation was determined by using a Cell Counting Kit-8 (purchased from Dojindo, Catalog Number: CK04). IC50 values were calculated from the data of the inhibition rates at various concentrations of the test compounds.
as §1

[2] = Pharmacokinetics assay in rats, intragastric administration, plasma by LC/MS/MS; format: in vivo, Sprague-Dawley (SD) rats; settings: both sexes, Sprague-Dawley, rat, plasma, po, SD rats, 10 mg/kg; for Vd/F: read-out: Apparent Distribution Volume Vz/F; for AUC: read-out: Area Under Curve AUC; for CL/F: read-out: Clearance CL/F; for half-life: read-out: Half-Life t½ (converted); for Cmax: read-out: Plasma Conc. Cmax
Method in brief: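 Fasted SD rats of both sexes dosed intragastrically at 10.0 mg/kg as a 1.0 mg/mL DMSO suspension; fed 2 h post-dose. Plasma sampled at various time points, protein-precipitated with methanol plus internal standard, and analyzed by LC-MS/MS.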

| SMILES | IC50 (T cells) [nM] | IC50 (JAK1 kinase) [nM] | IC50 (JAK2 kinase) [nM] | IC50 [1] [nM] | Vd/F [2] [L/kg] | AUC [2] [ng·h/mL] | CL/F [2] [mL/min/kg] | half-life [2] [h] | Cmax [2] [ng/mL] | IC50 ([1]; Homo sapiens) [nM] | IC50 ([1]; Homo sapiens, TF-1, 72 h) [nM] |
| --- | --- | --- | --- | --- | --- | --- | --- | --- | --- | --- | --- |
| CN(c1ncnc2[nH]ccc12)[C@@H]1C[C@H]2CN(C(=O)CO)C[C@@]2(C)C1 (racemic) [Example 14, 2-hydroxy-1-((3aS,5R,6aR/3aS,5R,6aR)-3a-methyl-5-(methyl(7H-pyrrolo[2,3-d]pyrimidin-4-yl)amino)hexahydrocyclopenta[c]pyrrol-2(1H)-yl)ethanone] | 712 | 30 |  |  |  |  |  |  |  |  |  |
| CN(c1ncnc2[nH]ccc12)[C@H]1C[C@H]2CNC(=O)C[C@H]2C1 [Example 40, (4aR,6R,7aR)-6-(Methyl(7H-pyrrolo[2,3-d]pyrimidin-4-yl)amino) hexahydro-1H-cyclopenta[c]pyridin-3(2H)-one] |  |  | 23 | 399 | 6.99 ± 3.39 | 5230 ± 1170 | 33.2 ± 7.7 | 2.72 ± 1.82 | 1520 ± 317 |  |  |
| CN(c1ncnc2[nH]ccc12)[C@H]1C[C@@H]2CN(C(=O)[C@H](O)C(F)(F)F)C[C@@H]2C1 [Example 94, (S)-3,3,3-trifluoro-2-hydroxy-1-((3aR,5R,6aS)-5-(methyl(7H-pyrrolo[2,3-d]pyrimidin-4-yl)amino)hexahydrocyclopenta[c]pyrrol-2(1H)-yl)propan-1-one] | 127 |  |  |  |  |  |  |  |  | 152 |  |
| CN(c1ncnc2[nH]ccc12)[C@H]1C[C@H]2CNC(=O)C[C@H]2C1 [Example 147, (4aR,6R,7aR)-6-(methyl(7H-pyrrolo[2,3-d]pyrimidin-4-yl)amino)hexahydro-1H-cyclopenta[c]pyridin-3(2H)-one] |  |  | 5 | 15 |  |  |  |  |  |  |  |
| CN(c1ncnc2[nH]ccc12)[C@@H]1CC2CNC(=O)CC2C1 (stereo partly drawn) [Example 148, (6S)-6-(methyl(7H-pyrrolo[2,3-d]pyrimidin-4-yl)amino)hexahydro-1H-cyclopenta[c]pyridin-3(2H)-one] |  |  | 23 |  | 6.99 ± 3.39 | 5230 ± 1170 | 33.2 ± 7.7 | 2.72 ± 1.82 | 1520 ± 317 |  | 399 |
